In ChEMBL document CHEMBL1201862, “PubChem BioAssay data set” (2004):
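Values below derive from 48-hour exposures of cells grown in 96-well plates, with endpoints linearly interpolated between the two concentrations bracketing the appropriate inhibition level. GI50 is the concentration that inhibits growth by half.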 Active and inactive are the calls of the source. Rule as the data show it: active = GI50 up to about 1.1 µM and inactive = higher.

Key:
Test in all cases: NCI anticancer screen, dose series, 48 h
[1] = system: MDA-MB-231
[2] = system: A549
[3] = system: OVCAR-5
[4] = system: NCI-H23
[5] = system: U-251
[6] = system: HCT-116
[7] = system: LOX IMVI
[8] = system: COLO 205
[9] = system: SW-620
[10] = system: Hs-578T
[11] = system: OVCAR-8
[12] = system: UO-31
[13] = system: SK-MEL-5
[14] = system: MDA-MB-435
[15] = system: HCC 2998
[16] = system: SN12C
[17] = system: NCI-H522
[18] = system: OVCAR-4
[19] = system: ACHN
[20] = system: HOP-92

SMILES | GI50 [1] | GI50 [2] | GI50 [3] | GI50 [4] | GI50 [5] | GI50 [6] | GI50 [7] | GI50 [8] | GI50 [9] | GI50 [10] | GI50 [11] | GI50 [12] | GI50 [13] | GI50 [14] | GI50 [15] | GI50 [16] | GI50 [17] | GI50 [18] | GI50 [19] | GI50 [20]
CSc1c(C#N)c(O)n(-c2ccc(C)cc2)c(=O)c1C(C)=O | > 100 µM (inactive) | > 100 µM (inactive) | 42.8 µM (inactive) | > 100 µM (inactive) | > 100 µM (inactive) | > 100 µM (inactive) | > 100 µM (inactive) | > 100 µM (inactive) | > 100 µM (inactive) | > 100 µM (inactive) | > 100 µM (inactive) | 88.7 µM (inactive) | > 100 µM (inactive) | > 100 µM (inactive) | > 100 µM (inactive) | > 100 µM (inactive) | 57.5 µM (inactive) | > 100 µM (inactive) |  | 
COc1cc2c(cc1O)c(O)cc1c3cc(OC)c(OC)cc3c[n+](C)c21 | 35.3 µM (inactive) | 44 µM (inactive) | > 100 µM (inactive) | 4.69 µM (inactive) | 0.582 µM (active) | 23.1 µM (inactive) | 16.2 µM (inactive) | > 43.3 µM (inactive) | 28.2 µM (inactive) | 4.23 µM (inactive) | 8.87 µM (inactive) | 53.5 µM (inactive) | 19 µM (inactive) | 16.4 µM (inactive) | > 91 µM (inactive) | 1.24 µM (inactive) | 0.0225 µM (active) | > 80.5 µM (inactive) | 56.6 µM (inactive) | 
O/N=C1/CCCCCC1NO (centres undefined) | > 100 µM (inactive) | > 100 µM (inactive) | > 100 µM (inactive) | > 100 µM (inactive) | > 100 µM (inactive) | > 100 µM (inactive) | > 100 µM (inactive) | > 100 µM (inactive) | > 100 µM (inactive) | > 100 µM (inactive) | > 100 µM (inactive) | > 100 µM (inactive) | > 100 µM (inactive) | > 100 µM (inactive) | > 100 µM (inactive) | > 100 µM (inactive) |  | > 100 µM (inactive) | > 100 µM (inactive) | > 100 µM (inactive)
C[n+]1c(-c2ccc(/C=N/Nc3ccnc(N/N=C/c4ccc(-c5cn6ccccc6[n+]5C)cc4)n3)cc2)cn2ccccc21 | > 100 µM (inactive) | > 100 µM (inactive) | 60.4 µM (inactive) |  |  | 20.7 µM (inactive) |  | 94 µM (inactive) | 71.1 µM (inactive) | 30.5 µM (inactive) | 82.4 µM (inactive) | 21.2 µM (inactive) | 56.4 µM (inactive) | > 10 µM (inactive) | > 100 µM (inactive) | > 100 µM (inactive) | > 100 µM (inactive) | > 100 µM (inactive) | 25.3 µM (inactive) | 
CN(C)CC1CCCC1=O (centres undefined) | 2.64 µM (inactive) | 24 µM (inactive) | 5.42 µM (inactive) | 4.48 µM (inactive) | 6.82 µM (inactive) | 0.944 µM (active) | 1.57 µM (inactive) | 0.56 µM (active) | 0.2 µM (active) | 17.9 µM (inactive) | 3.62 µM (inactive) | 9.38 µM (inactive) | 2.86 µM (inactive) | 4.39 µM (inactive) | 2.17 µM (inactive) | 1.06 µM (active) |  | 1.97 µM (inactive) | 3.03 µM (inactive) | 0.973 µM (active)
COc1ccc(C(=O)c2cc(OC)c(OC)c(OC)c2)cc1OC | 6.17 µM (inactive) | 4.44 µM (inactive) | 14.6 µM (inactive) | 10.2 µM (inactive) | 3.94 µM (inactive) | 4.94 µM (inactive) | 7.83 µM (inactive) | 4.04 µM (inactive) | 3.52 µM (inactive) | 2.7 µM (inactive) | 5.38 µM (inactive) | 3.71 µM (inactive) | 4.44 µM (inactive) | 0.436 µM (active) | 2.81 µM (inactive) | 7.21 µM (inactive) | 3.63 µM (inactive) |  | 9.25 µM (inactive) | 
